Experiments:
U87MG glioblastoma = assay: Sulphorodamine B test at single concentration, U87MG; assay type: cell-based; conditions: Homo sapiens, U-87 MG; 500 nM, 72 h
Description: (§1) The antiproliferative activity of novel Hsp90 inhibitors was also evaluated on various cancerous cell lines by means of the sulphorodamine B test (i.e., NCI-H460 non-small cell lung carcinoma, A431 epidermoid, A2780 ovarian, MDA-MB436 triple-negative breast, U87MG glioblastoma, A498 renal, HCT116 colon, MeWo melanoma, MiaPaCa2 pancreas, HeLa cervix uteri, NB4 promyelocytic leukemia). NCI-H460, A431, MDA-MB436, A2780, A498, HeLa, NB4 tumour cells were grown in RPMI 1640 containing 10% fetal bovine serum (i.e., FBS from GIBCO), L-glutamine, and 50 μg/ml gentamycin sulfate.
(§2) MeWo and U87-MG cells were cultured in Eagle's Minimum Essential Medium (i.e., EMEM) containing 10% FBS, L-glutamine, 1 mM sodium pyruvate, 0.1 mM non-essential amino acids, 1.5 g/l sodium bicarbonate, and 50 μg/ml gentamycin sulphate.
(§3) All cell lines were maintained in a 37° C. incubator with saturated humidity and an atmosphere containing 95% air and 5% CO2, and were sub-cultured every 2-3 days. Tumour cells were seeded in 96-well tissue culture plates at approximately 10% confluence and were allowed to attach and recover for 24 h.
(§4) Varying concentrations of the drugs were then added to each well to calculate their IC50 value (the concentration which inhibits the 50% of cell survival). The plates were incubated at 37° C. for 72 h. At the end of the treatment, the plates were washed by remotion of the supernatant and addition of PBS 3 times. 200 μl PBS and 50 μl of cold 80% trichloroacetic acid (TCA) were added. The plates were incubated on ice for at least 1 h. TCA was removed, the plates were washed 3 times by immersion in distilled-water and dried on paper and at 40° C. for […]. Then 200 μl of 0.4% sulphorodamine B in 1% acetic acid were added. The plates were incubated at room temperature for 30 min. Sulphorodamine B was removed, the plates were washed by immersion in 1% acetic acid for 3 times, then they were dried on paper and at 40° C. for 5 min. Then, 200 μl Tris 10 mM were added, the plates were kept under stirring for 20 min. The cell survival was determined as optical density by a Multiskan […] at 540 nm. The amount of cells killed was calculated as the percentage decrease in sulphorodamine B binding compared with control cultures.
(§5) The other cell lines were screened against one single concentration of the various inhibitors (i.e., 500 nM), all experiments being made in octuplicate, following the protocol described at example 35. Since NB4 cell line was grown in suspension, a further step of centrifugation (i.e., 1600 g for 10 min) was added after the 72 hour incubation period.

MiaPaCa2 pancreas = assay: Sulphorodamine B test at single concentration, MiaPaCa2; assay type: cell-based; conditions: Homo sapiens, MIA PaCa-2; 500 nM, 72 h
Description: as §1
MiaPaCa2 cells were cultured in DMEM medium containing 10% FBS, L-glutamine, and 50 μg/ml gentamycin sulfate.
as §3, §4, §5

HCT116 colon = assay: Sulphorodamine B test at single concentration, HCT116; assay type: cell-based; conditions: Homo sapiens, HCT-116; 500 nM, 72 h
Description: as §1
HCT116 cells were cultured in McCoy's medium containing 10% FBS, L-glutamine, and 50 μg/ml gentamycin sulfate.
as §3, §4, §5

Hsp90 = target: T1, Hsp90 (Homo sapiens, UniProt P07900); assay: Fluorescence Polarization (FP) binding, GM-BODIPY displacement from Hsp90; conditions: GM-BODIPY tracer, 4° C. for 4 hours
T1 construct: purchased Stressgen SPP-776
Description: GM-BODIPY (PerkinElmer, CUSN60342000MG) was previously dissolved in DMSO to obtain 10 mM stock solutions and kept at −20° C. until use.
Hsp90 (Stressgen, SPP-776), was previously dissolved in assay buffer (HFB) to form 2.2 μM stock solutions and kept at −80° C. until use.
The compounds were previously dissolved in DMSO to obtain stock solutions and kept at −20° C. The day of experiment, the compounds were prepared by serial dilutions in assay buffer (HFB) containing 20 mM HEPES (K) pH 7.3, 50 mM KCl, 5 mM MgCl2, 20 mM Na2MoO4 and 0.01% NP40. Before each use, 0.1 mg/ml Bovine Gamma globulin and 2 mM DTT were freshly added.
Fluorescence Polarization (FP) was performed in Opti-Plate™-96F well plates (Perkin Elmer, Zaventem, Belgium) using a plate reader (Wallac Envision 2101 multilabel reader, Perkin Elmer, Zaventem, Belgium). To evaluate the binding affinity of the molecules, 50 μl of the GM-BODIPY solution (100 nM) were added to 125 nM of Hsp90 in the presence of 5 μl of the test compounds at increasing concentrations. The plate was mixed on a shaker at 4° C. for 4 hours, and the FP values in mP (millipolarization units) were recorded. The IC50 values were calculated as the inhibitor concentration where 50% of the tracer is displaced; each data point is the result of the average of triplicate wells, and was determined from a plot using nonlinear least-squares analysis. Curve fitting was performed using
Prism GraphPad software program (GraphPad software, Inc., San Diego, Calif.).

MeWo melanoma = assay: Sulphorodamine B test at single concentration, MeWo; assay type: cell-based; conditions: Homo sapiens, 500 nM, 72 h
Description: as §1, §2, §3, §4, §5

A2780 ovarian = assay: Sulphorodamine B test at single concentration, A2780; assay type: cell-based; conditions: Homo sapiens, 500 nM, 72 h
Description: as §1, §3, §4, §5

A498 renal = assay: Sulphorodamine B test at single concentration, A498; assay type: cell-based; conditions: Homo sapiens, 500 nM, 72 h
Description: as §1, §3, §4, §5

[1] = system: NCI-H460 non-small cell lung carcinoma; assay: Cytotoxicity assay, sulphorodamine B test, NCI-H460; assay type: cell-based; conditions: for IC50: Homo sapiens, NCI-H460, 72 h, sulphorodamine B
Description: as §1, §3, §4

[2] = system: MDA-MB436 triple-negative breast; assay: Sulphorodamine B test at single concentration, MDA-MB436; assay type: cell-based; conditions: Homo sapiens, MDA-MB-436; 500 nM, 72 h
Description: as §1, §3, §4, §5

A431 epidermoid = assay: Sulphorodamine B test at single concentration, A431; assay type: cell-based; conditions: Homo sapiens, A-431; 500 nM, 72 h
Description: as §1, §3, §4, §5

[3] = system: NB4 promyelocytic leukemia; assay: Sulphorodamine B test at single concentration, NB4; assay type: cell-based; conditions: 500 nM, 72 h, suspension cells
Description: as §1, §3, §4, §5

HeLa cervix uteri = assay: Sulphorodamine B test at single concentration, HeLa; assay type: cell-based; conditions: Homo sapiens, 500 nM, 72 h
Description: as §1, §3, §4, §5

SMILES	inhibition at 0.5 µM (U87MG glioblastoma)	inhibition at 0.5 µM (MiaPaCa2 pancreas)	inhibition at 0.5 µM (HCT116 colon)	IC50 (Hsp90)	inhibition at 0.5 µM (MeWo melanoma)	inhibition at 0.5 µM (A2780 ovarian)	inhibition at 0.5 µM (A498 renal)	IC50 [1]	inhibition at 0.5 µM [2]	inhibition at 0.5 µM (A431 epidermoid)	inhibition at 0.5 µM [3]	inhibition at 0.5 µM (HeLa cervix uteri)	cytotoxic activity against NCI-H460 NSCLC (in words) [1]
CCNC(=O)c1nnn(-c2cc(C(C)C)c(O)cc2O)c1-c1ccc(CNCC2CCCCC2)cc1 [Example 15, 5-{4-[(cyclohexylmethyl-amino)-methyl]-phenyl}-1-(2,4-dihydroxy-5-isopropyl-phenyl)-1H-[1,2,3]triazole-4-carboxylic acid ethylamide]	≥ 50%	≥ 50%	≥ 50%	< 50 nM	≥ 50%	≥ 50%	≥ 50%	< 50 nM	≥ 50%	≥ 50%	≥ 50%	≥ 50%	–
CCNC(=O)c1nnn(-c2cc(C(C)C)c(O)cc2O)c1-c1ccc(CNCCN(CC)CC)cc1 [Example 17, 5-{4-[(2-diethylamino-ethylamino)-methyl]-phenyl}-1-(2,4-dihydroxy-5-isopropyl-phenyl)-1H-[1,2,3]triazole-4-carboxylic acid ethylamide]	≥ 50%	≥ 50%	30 to 50%	< 50 nM	≥ 50%	≥ 50%	30 to 50%	100 to 500 nM	≥ 50%	≥ 50%	≥ 50%	30 to 50%	–
CCNC(=O)c1nnn(-c2cc(C(C)C)c(O)cc2O)c1-c1ccc(CN2CC[C@H](N(C)C)C2)cc1 [Example 20, 1-(2,4-dihydroxy-5-isopropyl-phenyl)-5-[4-((S)-3-dimethylamino-pyrrolidin-1-ylmethyl)-phenyl]-1H-[1,2,3]triazole-4-carboxylic acid ethylamide]	≥ 50%	≥ 50%	≥ 50%	< 50 nM	≥ 50%	≥ 50%	30 to 50%	< 50 nM	≥ 50%	≥ 50%	≥ 50%	≥ 50%	–
CCCCCCNC(=O)c1nnn(-c2cc(C(C)C)c(O)cc2O)c1-c1ccc(CN2CCOCC2)cc1 [Example 27, 1-(2,4-dihydroxy-5-isopropyl-phenyl)-5-(4-morpholin-4-ylmethyl-phenyl)-1H-[1,2,3]triazole-4-carboxylic acid hexylamide]	≥ 50%	≥ 50%	≥ 50%	< 50 nM	≥ 50%	≥ 50%	≥ 50%	< 50 nM	≥ 50%	≥ 50%	≥ 50%	≥ 50%	–
CC(C)c1cc(-n2nnc(C(=O)NC3CCCC3)c2-c2ccc(CN3CCOCC3)cc2)c(O)cc1O [Example 28, 1-(2,4-dihydroxy-5-isopropyl-phenyl)-5-(4-morpholin-4-ylmethyl-phenyl)-1H-[1,2,3]triazole-4-carboxylic acid cyclopentylamide]	≥ 50%	≥ 50%	≥ 50%	< 50 nM	≥ 50%	≥ 50%	≥ 50%	< 50 nM	≥ 50%	≥ 50%	≥ 50%	≥ 50%	–
CC(C)c1cc(-n2nnc(C(=O)NC3CCCCC3)c2-c2ccc(CN3CCOCC3)cc2)c(O)cc1O [Example 29, 1-(2,4-dihydroxy-5-isopropyl-phenyl)-5-(4-morpholin-4-ylmethyl-phenyl)-1H-[1,2,3]triazole-4-carboxylic acid cyclohexylamide]	≥ 50%	≥ 50%	≥ 50%	50 to 100 nM	≥ 50%	≥ 50%	≥ 50%	< 50 nM	≥ 50%	≥ 50%	≥ 50%	≥ 50%	–
CCOC(=O)c1nnn(-c2cc(Cl)c(O)cc2O)c1-c1ccc(F)cc1 [Example 32, 1-(5-chloro-2,4-dihydroxy-phenyl)-5-(4-fluoro-phenyl)-1H-[1,2,3]triazole-4-carboxylic acid ethyl ester, reference compound]	< 30%	< 30%	< 30%	> 500 nM	< 30%	< 30%	< 30%	> 1000 nM	< 30%	< 30%	30 to 50%	< 30%	totally deprived of any interesting biological activity
Oc1cc(O)c(-n2nncc2-c2ccc(F)cc2)cc1Cl [Example 33, 4-chloro-6-[5-(4-fluoro-phenyl)-[1,2,3]triazol-1-yl]-benzene-1,3-diol, reference compound]	< 30%	< 30%	< 30%	> 500 nM	< 30%	< 30%	< 30%	> 1000 nM	< 30%	< 30%	< 30%	< 30%	totally deprived of any interesting biological activity

Source: patent US9302998B2, “Aryl triazole compounds with antitumoural activity” (SIGMA-TAU RESEARCH SWITZERLAND S.A., priority 2010, dated 2016)
